Measurements from patent US7097856B2, “Dendrimeric support or carrier macromolecule” (priority 2000, dated 2006).

System: complementary strand of DNA
Experiment: Thermal denaturation of DNA-dendrimer conjugate hybridized with complementary strand
Format: binding

Substance: native: unmodified single stranded DNA, sequence TTC TCT TCA GTT CAC A (5′ to 3′) (DNA TTCTCTTCAGTTCACA; unmodified DNA)
- Tm (thermal denaturation, melting temperature): 52.3 °C
